The target in assay [1] is T1, IsdI (Staphylococcus aureus, UniProt Q99X56).
T1 construct: Expression plasmids were constructed by inserting the gene for each oxygenase into the base vector pET28b; His-tag (N); made in house; host or cells: E. coli BL21-DE3(T1), pET28b
Description: UV-VIS Soret band screen of model porphyrins with IsdI. Conditions: porphyrin treated with IsdI; UV-VIS absorbance, room temperature; shift vs Control indicates protein-porphyrin interaction. The format is biochemical, S. aureus. From the text:
(§1) UV-VIS spectroscopy was used for initial screening of protein activity against numerous model compounds because each model porphyrin has a characteristic UV-VIS absorbance spectrum. A shift in the wavelength of maximal absorbance, commonly referred to as the “Soret band,” indicates a change in porphyrin conformation or a protein-porphyrin interaction.
(§2) To prepare crude protein, aliquots were thawed on ice and diluted 4-fold with protein assay buffer (PAB). To isolate purified oxygenases, protein aliquots were thawed on ice and proteins of interest were purified by HIS-tag-Ni-NTA column affinity followed by size exclusion chromatography with PD-10 desalting columns. Purified protein was eluted in PAB, collected in the first 2 mL PD-10 column flow-through fraction. Relative to the initial protein concentration, samples were diluted 4-fold to parallel crude protein samples.
(§3) Model porphyrin stocks were prepared in porphyrin phosphate buffer (PPB), stored at 4° C. in amber bottles to protect samples from light, and used or discarded within one month.
(§4) Amber tubes were used for all assays to protect samples from light. Crude and purified protein samples were combined with porphyrin substrates, to achieve final concentrations in Table 4, and total assay volumes were raised to 10 mL with Tris buffer. Absorbance of a 2.4 mL sample was measured in a 1 cm quartz cuvette, at room temperature, 1 nm resolution, and 0.7 sec. integration time on an Evolution201® UV-VIS spectrophotometer with Thermo INSIGHT® software. Samples were incubated for 24 hrs. at room temperature and 75 RPM and their final UV-VIS absorbance spectra was measured. An absorbance baseline was collected using Tris buffer at the beginning of each time point and ≤1% error was observed between technical replicates. Crude, empty pET28b vector (EV) strain lysate protein and PAB only controls were run in parallel with experimental samples (EXP) for each porphyrin.

For assay [2], the target named is T2, IsdG (Staphylococcus aureus, UniProt Q99UW8).
T2 construct: Expression plasmids were constructed by inserting the gene for each oxygenase into the base vector pET28b; His-tag (N); made in house; host or cells: E. coli BL21-DE3(T1), pET28b
Description: UV-VIS Soret band screen of model porphyrins with IsdG. It is filed as biochemical, S. aureus. Conditions: porphyrin treated with IsdG; UV-VIS absorbance, room temperature; shift vs Control indicates protein-porphyrin interaction.
Source text: as §1, §2, §3, §4

Assay [3] deals with T3, HugZ (Helicobacter pylori, UniProt O25087).
T3 construct: Expression plasmids were constructed by inserting the gene for each oxygenase into the base vector pET28b; His-tag (N); made in house; host or cells: E. coli BL21-DE3(T1), pET28b
Description: UV-VIS Soret band screen of model porphyrins with HugZ. The format is biochemical, H. pylori. The conditions noted are these: porphyrin treated with HugZ; UV-VIS absorbance, room temperature; shift vs Control indicates protein-porphyrin interaction.
Source text: as §1, §2, §3, §4

For assay [4], the system named is HmuO. Description: UV-VIS Soret band screen of model porphyrins with HmuO. The format is biochemical, C. jeikeium. The conditions noted are these: porphyrin treated with HmuO; UV-VIS absorbance, room temperature; shift vs Control indicates protein-porphyrin interaction.
Source text: (§5) A shift in the wavelength of maximal absorbance, commonly referred to as the “Soret band,” indicates a change in porphyrin conformation or a protein-porphyrin interaction.
as §2, §3
(§6) Amber tubes were used for all assays to protect samples from light. Crude and purified protein samples were combined with porphyrin substrates, to achieve final concentrations in Table 4, and total assay volumes were raised to 10 mL with Tris buffer. Absorbance of a 2.4 mL sample was measured in a 1 cm quartz cuvette, at room temperature, 1 nm resolution, and 0.7 sec. integration time on an Evolution201® UV-VIS spectrophotometer with Thermo INSIGHT® software. Samples were incubated for 24 hrs. at room temperature and 75 RPM and their final UV-VIS absorbance spectra was measured.

Assay [5] addresses T4, PigA (Pseudomonas aeruginosa, UniProt G3XCZ8).
T4 construct: Expression plasmids were constructed by inserting the gene for each oxygenase into the base vector pET28b; His-tag (N); made in house; host or cells: E. coli BL21-DE3(T1), pET28b
Briefly: UV-VIS Soret band screen of model porphyrins with PigA. The conditions noted are these: porphyrin treated with PigA; UV-VIS absorbance, room temperature; shift vs Control indicates protein-porphyrin interaction. It is filed as biochemical, P. aeruginosa.
Source text: as §5, §2, §3, §6

Assay [6] concerns ChuS. Description: UV-VIS Soret band screen of model porphyrins with ChuS. The format is biochemical, E. coli. Conditions: porphyrin treated with ChuS; UV-VIS absorbance, room temperature; shift vs Control indicates protein-porphyrin interaction.
Source text: as §1, §2, §3, §4

Consider `O=C(O)c1ccc(-c2c3nc(c(-c4ccc(C(=O)O)cc4)c4ccc([n-]4)c(-c4ccc(C(=O)O)cc4)c4nc(c(-c5ccc(C(=O)O)cc5)c5ccc2[n-]5)C=C4)C=C3)cc1.[Ni+2]` [Ni(II)-meso-tetra-(4-carboxyphenyl) porphine], for which the Soret band wavelength is reported as 400 nm in assay [1]; 400 nm in assay [2]; 400 nm in assay [3]; 405 nm in assay [4]; 404 nm in assay [5]; 410/405 in assay [6].

As for `C[n+]1ccc(-c2c3nc(c(-c4cc[n+](C)cc4)c4ccc([n-]4)c(-c4cc[n+](C)cc4)c4nc(c(-c5cc[n+](C)cc5)c5ccc2[n-]5)C=C4)C=C3)cc1.[Cl-].[Cl-].[Cl-].[Cl-].[Ni+2]` [Ni(II)-meso-tetra-(Nmethyl-4-pyridyl) porphine tetrachloride], the Soret band wavelength in assay [4] and in assay [6] was 440 nm in each case.

Regarding `C=CC1=C(C)c2cc3[n-]c(cc4[n-]c(cc5nc(cc1n2)C(C)=C5C=C)c(C)c4CCC(=O)[O-])c(CCC(=O)[O-])c3C.[H+].[H+].[Ni+2]` [Ni(II)-protoporphyrin (IX)], the Soret band wavelength is on record as 400 nm in assay [1]; 400 nm in assay [2]; 417 nm in assay [3]; 400 nm in assay [4]; 400 nm in assay [5]; 400 nm in assay [6].

Take `C[n+]1ccc(-c2c3nc(c(-c4cc[n+](C)cc4)c4ccc([n-]4)c(-c4cc[n+](C)cc4)c4nc(c(-c5cc[n+](C)cc5)c5ccc2[n-]5)C=C4)C=C3)cc1.[Cl-].[Cl-].[Cl-].[Cl-].[O]=[V+2]` [VO-meso-tetra-(N-methyl-4-pyridyl), VO-meso-tetra-(N-methyl-4-pyridyl) porphine tetrachloride]: the Soret band wavelength in assay [4] and in assay [6] was 422 nm each time.

For the compound “Fe(III)-meso-tetra-(4-carboxyphenyl) porphine chloride”, the Soret band wavelength in assay [1] is listed as 410 nm; in assay [2] it was 410 nm; in assay [3] it was 418 nm; in assay [4], 417 nm; in assay [5], 414 nm; in assay [6], 424/420.

Turning to hemin, the Soret band wavelength is listed as 390 nm in assay [1]; 390 nm in assay [2]; 405 nm in assay [3]; 399 nm in assay [4]; 400 nm in assay [5]; 405/400 in assay [6].

For the origin of these results see patent US10883088B2, “Biological upgrading of hydrocarbon streams with oxygenases” (priority 2017, dated 2021).
